Measured values as given in ChEMBL document CHEMBL1129154, “()-SCH 57939: synthesis and pharmacological properties of a potent, metabolically stable cholesterol absorption inhibitor” (1996).

Tests used:
Assay type in all cases: functional, Cricetulus griseus
Cricetinae gen. sp. [1] = test: Compound was evaluated for the percent reduction in liver cholesterol ester levels in cholesterol fed hamster model at […]
Cricetinae gen. sp. [2] = test: Compound was evaluated in vivo for the cholesterol lowering activity in hamster model
Cricetinae gen. sp. [3] = test: Compound was evaluated for the percent reduction in liver cholesterol ester levels in cholesterol fed hamster model at 0.3 mg/kg
Cricetinae gen. sp. [4] = test: Compound was evaluated for the percent reduction in liver cholesterol ester levels in cholesterol fed hamster model at 1 mg/kg
Cricetinae gen. sp. [5] = test: Compound was evaluated for the percent reduction in liver cholesterol ester levels in cholesterol fed hamster model at 10 mpk
Cricetinae gen. sp. [6] = test: Compound was evaluated for the percent reduction in liver cholesterol ester levels in cholesterol fed hamster model at 10 mg/kg

Molecule `O=C1[C@@H]([C@H](O)COc2ccc(F)cc2)[C@@H](c2ccc(O)cc2)N1c1ccc(F)cc1` has a L/CE (Cricetinae gen. sp. [1]) of 0%.
For `O=C1[C@H]([C@H](O)COc2ccc(F)cc2)[C@@H](c2ccc(O)cc2)N1c1ccc(F)cc1`, the ED50 (Cricetinae gen. sp. [2]) was 0.27 MPK and the L/CE (Cricetinae gen. sp. [3]) was -70%.
With `COc1ccc([C@@H]2[C@@H]([C@H](O)COc3ccc(F)cc3)C(=O)N2c2ccccc2)cc1` the L/CE (Cricetinae gen. sp. [4]; 1 mg/kg) was -84% and the ED50 (Cricetinae gen. sp. [2]; Cricetinae gen. sp., read-out: ED50) was 0.3 mg/kg.
In the case of `O=C1[C@H]([C@@H](O)COc2ccc(F)cc2)[C@H](c2ccc(O)cc2)N1c1ccc(F)cc1` (racemic), the L/CE (Cricetinae gen. sp. [5]) is reported as -39%.
For `COc1ccc([C@@H]2N(c3ccccc3)C(=O)[C@]2(C)[C@@H](O)COc2ccc(F)cc2)cc1` (racemic), the L/CE (Cricetinae gen. sp. [6]) was -48%.
Work on `O=C1[C@H]([C@H](O)COc2ccc(F)cc2)[C@@H](c2ccc(O)cc2)N1c1ccc(F)cc1` (racemic) yielded a L/CE (Cricetinae gen. sp. [4]) of -38% and an ED50 (Cricetinae gen. sp. [2]) of 0.7 MPK.
`COc1ccc([C@@H]2[C@@H]([C@H](O)COc3ccc(F)cc3)C(=O)N2c2ccccc2)cc1` (racemic) gave a L/CE (Cricetinae gen. sp. [4]; 1 mg/kg) of -57%.
